Data set [1] concerns the target P2X purinoceptor 7 (Homo sapiens, UniProt Q99572). In words: Antagonist activity at human P2X7.
Data set [2] is described as follows: Protein binding in human plasma at 1 uM after 6 hrs by equilibrium dialysis method. The format is ADME, cell-free. The note with it: read-out: PPB (converted). For orientation: In equilibrium dialysis free small molecules cross a membrane that holds back macromolecules.
A short description of data set [3]: Clearance in Sprague-Dawley rat at 1 mg/kg, iv or 5 mg/kg, po by LC-MS/MS analysis. The format is ADME, organism-based. The settings on record: in vivo.
Data set [4] in a line: Oral bioavailability in beagle dog at 2.5 mg/kg by LC-MS/MS analysis. The format is ADME, organism-based, Canis lupus familiaris. The settings on record: beagle, in vivo.
Data set [5] is described as follows: Half life in Sprague-Dawley rat at 1 mg/kg, iv by LC-MS/MS analysis. The settings on record: in vivo. Format: ADME, organism-based.
Data set [6] can be described thus: Solubility of compound in phosphate buffer at pH 2 after 3 days. The format is physicochemical.
Data set [7] can be described thus: Clearance in beagle dog at 0.5 mg/kg, iv or 2.5 mg/kg, po by LC-MS/MS analysis. Format: ADME, organism-based, Canis lupus familiaris. The note with it: in vivo.
For data set [8], the system named is Liver. In words: Drug metabolism in rat liver microsomes assessed as oxidation of methyl group on pyrimidine at 1 uM after 5 to 60 mins by LC-MS/MS analysis. Format: ADME, microsome. On the technique in general: Liver microsomes are vesicles of endoplasmic reticulum, rich in cytochrome P450 enzymes.
The subject of data set [9] is Liver. In words: Drug metabolism in mouse liver microsomes assessed as oxidation of methyl group on pyrimidine at 1 uM after 5 to 60 mins by LC-MS/MS analysis. Format: ADME, microsome.
The test system of data set [10] is Liver. The data set is described as follows: Drug metabolism in dog liver microsomes assessed as oxidation of methyl group on pyrimidine at 1 uM after 5 to 60 mins by LC-MS/MS analysis. Format: ADME, Canis lupus familiaris, microsome.
Data set [11] is described as follows: Solubility of compound in phosphate buffer at pH 7 after 3 days. The format is physicochemical.
Data set [12] deals with Liver. The data set is described as follows: Drug metabolism in human liver microsomes assessed as oxidation of methyl group on pyrimidine at 1 uM after 5 to 60 mins by LC-MS/MS analysis. The format is ADME, microsome.
A short description of data set [13]: Volume of distribution at steady state in Sprague-Dawley rat at 1 mg/kg, iv or 5 mg/kg, po by LC-MS/MS analysis. Format: ADME, organism-based. The note with it: in vivo, read-out: Vdss.
Data set [14] deals with Rattus norvegicus. In words: Toxicity in rat assessed as increase in liver weight at 50 to 500 mg/kg administered via oral gavage on day 1 and day 4. Format: organism-based. The note with it: in vivo.
In data set [15] the test system is Rattus norvegicus. The data set is described as follows: Ex vivo receptor occupancy at P2X7 in po dosed Sprague-Dawley rat brain after 60 mins by autoradiography. The format is functional. The note with it: 1 h.
Data set [16] is described as follows: Oral bioavailability in Sprague-Dawley rat at 5 mg/kg by LC-MS/MS analysis. The format is ADME, organism-based. The note with it: in vivo.
Data set [17] can be described thus: Volume of distribution at steady state in beagle dog at 0.5 mg/kg, iv or 2.5 mg/kg, po by LC-MS/MS analysis. The format is ADME, organism-based, Canis lupus familiaris. The settings on record: in vivo, read-out: Vdss.
Data set [18] relates to Rattus norvegicus. The data set is described as follows: Ex vivo receptor occupancy at P2X7 in po dosed Sprague-Dawley rat brain assessed as plasma concentration required to achieve EC50 after 60 mins by autoradiography. Format: functional, organism-based.
The test system of data set [19] is Rattus norvegicus. The data set is described as follows: Toxicity in rat assessed as autoinduction at 50 to 500 mg/kg administered via oral gavage on day 1 and day 5. Format: organism-based. The settings on record: in vivo.
Data set [20] can be described thus: Half life in beagle dog at 0.5 mg/kg, iv by LC-MS/MS analysis. The settings on record: in vivo. Format: ADME, organism-based, Canis lupus familiaris.
A short description of data set [21]: Drug metabolism in cynomolgus monkey liver microsomes assessed as oxidation of methyl group on pyrimidine at 1 uM after 5 to 60 mins by LC-MS/MS analysis. Format: ADME, Macaca fascicularis, microsome.
The nature of data set [22]: Protein binding in rat plasma at 1 uM after 6 hrs by equilibrium dialysis method. The format is ADME, cell-free. The note with it: read-out: PPB (converted).
Data set [23] deals with Cytochrome P450 2C19 (Homo sapiens, UniProt P33261). In words: Drug metabolism assessed as recombinant human CYP2C19-mediated metabolite formation. The format is ADME. The settings on record: recombinant enzyme.
Sequence of Cytochrome P450 2C19 (P33261 whole entry): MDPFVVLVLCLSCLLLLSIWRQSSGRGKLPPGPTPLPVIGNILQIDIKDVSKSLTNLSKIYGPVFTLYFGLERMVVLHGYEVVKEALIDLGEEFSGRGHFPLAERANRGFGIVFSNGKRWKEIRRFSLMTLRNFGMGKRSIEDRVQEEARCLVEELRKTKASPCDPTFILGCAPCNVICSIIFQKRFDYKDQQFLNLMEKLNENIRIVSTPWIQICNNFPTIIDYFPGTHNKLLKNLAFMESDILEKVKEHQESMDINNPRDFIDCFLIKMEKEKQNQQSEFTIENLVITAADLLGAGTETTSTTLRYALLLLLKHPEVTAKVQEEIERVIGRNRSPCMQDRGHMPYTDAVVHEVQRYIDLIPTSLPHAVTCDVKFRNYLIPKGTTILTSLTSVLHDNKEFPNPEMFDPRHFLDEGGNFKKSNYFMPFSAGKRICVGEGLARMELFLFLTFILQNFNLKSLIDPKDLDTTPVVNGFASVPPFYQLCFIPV
Data set [24] is described as follows: Protein binding in mouse plasma at 1 uM after 6 hrs by equilibrium dialysis method. The format is ADME, cell-free. The settings on record: read-out: PPB (converted).
A short description of data set [25]: Protein binding in rat brain at 5 uM after 5 hrs by equilibrium dialysis method. The format is ADME, tissue-based. The note with it: read-out: PB (converted).

pIC50: −log10 of the molar value. ≈ marks a conversion by molar mass, not a printed value.

One may read the pIC50 as −log10 of the IC50, conventionally taken in molar units. Usually bioavailability stands for the share of a dose that reaches the circulation, judged against a reference dose that is usually intravenous. By half-life is commonly meant the time in which the quantity being followed falls by half. In general, solubility refers to the concentration that dissolves in the medium under given conditions. As a reminder, the ED50 is the dose at which the effect has come halfway, by size or by number of responders.

Sequence of P2X purinoceptor 7 (Q99572 whole entry): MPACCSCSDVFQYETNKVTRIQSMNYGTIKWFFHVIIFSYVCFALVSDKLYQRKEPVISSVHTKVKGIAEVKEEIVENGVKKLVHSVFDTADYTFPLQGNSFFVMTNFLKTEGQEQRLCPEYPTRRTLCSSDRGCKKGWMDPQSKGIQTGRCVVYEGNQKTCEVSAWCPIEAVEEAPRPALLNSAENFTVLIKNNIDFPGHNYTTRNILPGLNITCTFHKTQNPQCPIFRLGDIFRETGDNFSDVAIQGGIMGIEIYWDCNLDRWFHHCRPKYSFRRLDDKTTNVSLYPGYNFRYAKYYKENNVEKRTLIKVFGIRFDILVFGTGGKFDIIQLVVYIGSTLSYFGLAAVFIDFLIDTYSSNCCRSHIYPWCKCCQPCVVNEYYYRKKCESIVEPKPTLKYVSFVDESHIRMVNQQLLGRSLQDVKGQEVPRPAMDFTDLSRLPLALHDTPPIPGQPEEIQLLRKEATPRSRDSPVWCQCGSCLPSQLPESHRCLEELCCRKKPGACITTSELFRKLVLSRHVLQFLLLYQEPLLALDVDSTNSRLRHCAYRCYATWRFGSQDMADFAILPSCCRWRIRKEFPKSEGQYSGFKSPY

`O=C(NCC12CC3CC(CC(C3)C1)C2)c1cc(CCCNCCCO)ccc1Cl` [AZD9056] showed a pIC50 in data set [1] of 7.89 to 8.00.
Regarding `Cc1ccnc(-n2nnc3c2CCN(C(=O)c2cccc(C(F)(F)F)c2Cl)[C@@H]3C)n1`, the fraction unbound at 6 h, 1 µM is 0.085 in data set [2], 0.095 in data set [22] and 0.095 in [24]. Also, the results for the clearance in data set [3] and in data set [7] were 64 mL/min/kg and 21 mL/min/kg, respectively. Besides, the bioavailability was 86% in data set [4] and 3% in data set [16]. Moreover, the half-life is 48 min in [5] and 42 min in data set [20]. For the same compound, the figures for the solubility at 72 h in [6] and in [11] were 328 µM (≈ 143 µg/mL) and 283 µM (≈ 124 µg/mL), respectively. Further, the Drug metabolism entry in data set [8], in [9], in data set [10], in data set [12], in data set [21] and in data set [23] was “Metabolite_Detected” throughout. For the same compound, the figures for the Vd in data set [13] and in data set [17] were 1.6 L/kg and 1.8 L/kg, respectively. The Activity entry in data set [14] and in [19] was “Toxic” in each case. The compound further gave an ED50 in data set [15] of 8.3 mg/kg. Further, the Cp in data set [18] stood at 51 ng/mL. Further, the fraction unbound at 5 h, 5 µM in data set [25] is 0.041.

(Values after ChEMBL document CHEMBL4052642, “4-Methyl-6,7-dihydro-4H-triazolo[4,5-c]pyridine-Based P2X7 Receptor Antagonists: Optimization of Pharmacokinetic Properties Leading to the Identification of a Clinical Candidate” (J Med Chem, 2017).)
